Measured values taken from patent US10647694B2, “Diphenylaminopyrimidine and triazine compound, and pharmaceutical composition and use thereof” (ARROMAX PHARMATECH CO., LTD., priority 2016, dated 2020).

Each compound was assayed against ALK enzyme (Homo sapiens, UniProt Q9UM73) (assay: In-vitro ALK kinase inhibitory activity (HTRF kinEASE TK kit)). Conditions: inhibitory activity for ALK enzyme, read-out: IC50 range.
Format: biochemical
Protocol: Anaplastic Lymphoma Kinase (ALK) Inhibitory Activity The in-vitro kinase assay was performed using the HTRF kinEASE TK kit available from Cisbio. The operation steps are indicated in the instructions of the kit. This method was used to detect the inhibitory effect of the compound to be tested on the activity of ALK enzymes in vitro, including wild-type ALK (Cat.PV3867, Invitrogen), ALK L1196M (Cat. PV6168, Life technologies), and ALK F1174L (Cat. PV6160, Life technologies). The specific operation steps were as follows. […] In addition to the control wells, 4 μL of the diluted compound solution to be tested was added to the reaction wells, and 4 μL of the 2.5% DMSO solution corresponding to the ALK enzyme previously formulated was added to the control wells. (2) 2 μL of a TK-biotin substrate solution previously formulated in a substrate concentration corresponding to the ALK enzyme was added to all reaction wells. (3) 2 μL of a previously prepared enzyme solution of corresponding concentration was added to all the reaction wells except the negative wells, and 2 μL of the 1× kinase buffer corresponding to the enzyme was added to the negative wells to make up the volume. The plate was sealed with a membrane, and incubated for 10 min at room temperature after mixing uniformly, such that the compounds were bond to the enzyme fully. (4) 2 μL of an ATP solution in a concentration corresponding to the ALK enzyme was added to all the reaction wells to initiate the kinase reaction, where the enzyme reaction time by ALK was 60 minutes. (5) An ALK test solution was prepared 5 minutes before the end of the kinase reaction. Streptavidin-XL665 and TK antibody europium cryptate (1:100) solutions for assay having a concentration corresponding to the enzyme were prepared using the detection buffer in the kit. (6) After the completion of the kinase reaction, 5 μl of diluted Streptavidin-XL665 was added to all the reaction wells respectively, and mixed uniformly, and then the diluted TK antibody europium cryptate solution for assay was added immediately. (7) The plate was sealed, mixed uniformly and allowed to react at room temperature for 1 h. The fluorescence signal (excitation at 320 nm, and emission at 665 nm and 615 nm) was detected using the ENVISION instrument (Perkinelmer). The inhibition rate for each well was calculated from the values of the fully active wells and the background signal wells. The values of replicated wells were averaged, and the half-maximal inhibitory activity (IC50) of each compound to be tested was fitted with a professional drawing analysis software PRISM 5.0.

Sequence of ALK enzyme (Q9UM73 19-1620 limits assumed): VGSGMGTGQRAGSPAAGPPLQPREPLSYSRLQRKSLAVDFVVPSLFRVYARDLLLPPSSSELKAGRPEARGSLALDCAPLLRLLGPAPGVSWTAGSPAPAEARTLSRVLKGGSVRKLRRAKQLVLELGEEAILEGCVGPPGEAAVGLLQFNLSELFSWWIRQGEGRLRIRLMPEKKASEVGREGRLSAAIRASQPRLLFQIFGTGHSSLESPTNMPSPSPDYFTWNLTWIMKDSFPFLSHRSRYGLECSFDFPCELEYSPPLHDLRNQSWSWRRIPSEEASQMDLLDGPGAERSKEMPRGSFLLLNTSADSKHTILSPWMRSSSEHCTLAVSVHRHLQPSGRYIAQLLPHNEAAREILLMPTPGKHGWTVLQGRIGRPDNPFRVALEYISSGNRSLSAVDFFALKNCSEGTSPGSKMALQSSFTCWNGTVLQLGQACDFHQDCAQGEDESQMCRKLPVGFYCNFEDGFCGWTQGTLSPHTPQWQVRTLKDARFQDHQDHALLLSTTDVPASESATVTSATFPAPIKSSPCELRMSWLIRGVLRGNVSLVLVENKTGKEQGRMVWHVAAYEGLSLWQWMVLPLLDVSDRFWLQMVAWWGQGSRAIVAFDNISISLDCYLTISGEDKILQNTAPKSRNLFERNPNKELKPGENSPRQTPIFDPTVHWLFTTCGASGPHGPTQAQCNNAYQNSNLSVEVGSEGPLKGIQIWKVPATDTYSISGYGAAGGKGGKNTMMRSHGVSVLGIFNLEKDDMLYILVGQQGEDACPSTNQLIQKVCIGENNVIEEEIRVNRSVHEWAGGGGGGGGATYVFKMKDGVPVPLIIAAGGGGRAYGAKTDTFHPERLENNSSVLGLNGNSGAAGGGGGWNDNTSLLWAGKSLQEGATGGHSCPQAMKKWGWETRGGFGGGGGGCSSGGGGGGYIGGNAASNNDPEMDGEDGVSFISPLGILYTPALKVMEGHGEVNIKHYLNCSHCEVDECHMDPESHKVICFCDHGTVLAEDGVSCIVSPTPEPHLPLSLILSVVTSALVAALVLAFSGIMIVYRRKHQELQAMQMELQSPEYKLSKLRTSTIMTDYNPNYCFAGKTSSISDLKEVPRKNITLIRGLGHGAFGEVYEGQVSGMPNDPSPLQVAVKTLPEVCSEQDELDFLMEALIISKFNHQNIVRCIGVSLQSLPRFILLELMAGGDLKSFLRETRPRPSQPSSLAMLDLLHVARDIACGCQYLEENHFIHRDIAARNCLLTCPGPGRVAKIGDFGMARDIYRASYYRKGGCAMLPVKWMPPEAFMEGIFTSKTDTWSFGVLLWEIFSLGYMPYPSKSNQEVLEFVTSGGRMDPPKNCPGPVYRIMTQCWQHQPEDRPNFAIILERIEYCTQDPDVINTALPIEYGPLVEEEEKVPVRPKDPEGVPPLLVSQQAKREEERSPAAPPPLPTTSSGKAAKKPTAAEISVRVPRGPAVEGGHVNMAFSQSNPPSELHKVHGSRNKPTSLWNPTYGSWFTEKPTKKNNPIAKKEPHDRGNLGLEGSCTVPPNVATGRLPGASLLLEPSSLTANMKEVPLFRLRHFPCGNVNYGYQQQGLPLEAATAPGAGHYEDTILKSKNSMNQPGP

SMILES | IC50 [nM]
COc1cc(N2CCC(N(C)C)CC2)ccc1Nc1nc(Nc2ccccc2S(=O)(=O)C(C)C)c2sccc2n1 [Compound I-27, N2-(4-(4-(dimethylamino)piperidin-1-yl)-2-D3-methoxyphenyl)-N4-(2-(isopropylsulfonyl)phenyl)thieno[3,2-d]pyrimidin-2,4-diamine] | 10 to 100
COc1cc(N2CCC(N(C)C)CC2)ccc1Nc1nc(Nc2ccccc2S(=O)(=O)C(C)C)c2ccsc2n1 [Compound I-26, N2-(4-(4-(dimethylamino)piperidin-1-yl)-2-D3-methoxyphenyl)-N4-(2-(isopropylsulfonyl)phenyl)thieno[2,3-d]pyrimidin-2,4-diamine] | 10 to 100
COc1cc(N2CCC(N3CCN(C)CC3)CC2)ccc1Nc1ncnc(Nc2ccccc2S(=O)(=O)C(C)C)n1 [Compound I-43, N2-(2-(isopropylsulfonyl)phenyl)-N4-(2-D3-methoxy-4-(4-(4-methylpiperazin-1-yl)piperidin-1-yl)phenyl)-1,3,5-triazin-2,4-diamine] | 1 to 10
COc1cc(C2CCNCC2)c(C)cc1Nc1nc(Nc2ccccc2S(=O)(=O)C(C)C)c2cc[nH]c2n1 [Compound I-30, N4-(2-(isopropylsulfonyl)phenyl)-N2-(2-D3-methoxy-5-methyl-4-(piperidin-4-yl)phenyl)-7H-pyrrolo[2,3-d]pyrimidin-2,4-diamine] | 10 to 100
COc1cc(C2CCNCC2)c(C)cc1Nc1nccc(Nc2ccccc2S(=O)(=O)C(C)C)n1 [Compound I-1, N4-(2-(isopropylsulfonyl)phenyl)-N2-(2-D3-methoxy-5-methyl-4-(piperidin-4-yl)phenyl)pyrimidin-2,4-diamine] | 1 to 10
COc1cc(C2CCNCC2)c(C)cc1Nc1nc(Nc2ccccc2S(=O)(=O)C(C)C)c2ccsc2n1 [Compound I-32, N4-(2-(isopropylsulfonyl)phenyl)-N2-(2-D3-methoxy-5-methyl-4-(piperidin-4-yl)phenyl)thieno[2,3-d]pyrimidin-2,4-diamine] | 10 to 100
COc1cc(N2CCC(N3CCN(C)CC3)CC2)ccc1Nc1nc(Nc2ccccc2S(=O)(=O)C(C)C)c2[nH]ccc2n1 [Compound I-25] | 10 to 100
COc1cc(C2CCNCC2)c(C#N)cc1Nc1ncc(Cl)c(Nc2ccccc2S(=O)(=O)C(C)C)n1 [Compound I-23, 5-((5-chloro-4-((2-(isopropylsulfonyl)phenyl)amino)pyrimidin-2-yl)amino)-4-D3-methoxy-2-(piperidin-4-yl)benzonitrile] | 1 to 10
COc1cc(C2CCNCC2)c(C)cc1Nc1ncc(Cl)c(Nc2ccccc2P(C)(C)=O)n1 [Compound I-38, 5-chloro-N4-(2-(dimethylphosphoryl)phenyl)-N2-(2-D3-methoxy-5-methyl-4-(piperidin-4-yl)phenyl)pyrimidin-2,4-diamine] | 1 to 10
COc1cc(N2CCC(N3CCOCC3)CC2)ccc1Nc1ncc(Cl)c(Nc2ccccc2S(=O)(=O)C(C)C)n1 [Compound I-35, 5-chloro-N4-(2-(isopropylsulfonyl)phenyl)-N2-(2-D3-methoxy-4-(4-morpholinopiperidin-1-yl)phenyl)pyrimidin-2,4-diamine] | 1 to 10
CCOc1cc(C2CCNCC2)ccc1Nc1ncc(Cl)c(Nc2ccccc2S(=O)(=O)C(C)C)n1 [Compound I-20, 5-chloro-N2-(2-D5-ethoxy-4-(piperidin-4-yl)phenyl)-N4-(2-(isopropylsulfonyl)phenyl)pyrimidin-2,4-diamine] | 1 to 10
COc1cc(C2CCNCC2)c(C)cc1Nc1nc(Nc2ccccc2S(=O)(=O)C(C)C)c2ccccc2n1 [Compound I-29, N4-(2-(isopropylsulfonyl)phenyl)-N2-(2-D3-methoxy-5-methyl-4-(piperidin-4-yl)phenyl)quinazolin-2,4-diamine] | 10 to 100
COc1cc(C2CCNCC2)c(C)cc1Nc1nc(Nc2ccccc2S(=O)(=O)C(C)C)c2[nH]ccc2n1 [Compound I-31, N4-(2-(isopropylsulfonyl)phenyl)-N2-(2-D3-methoxy-5-methyl-4-(piperidin-4-yl)phenyl)-5H-pyrrolo[3,2-d]pyrimidin-2,4-diamine] | 10 to 100
COc1cc(N2CCC(N3CCC(N)CC3)CC2)ccc1Nc1ncc(Cl)c(Nc2ccccc2S(=O)(=O)C(C)C)n1 [Compound I-34, N2-(4-(4-amino-[1,4′-bipyridin]-1′-yl)-2-D3-methoxyphenyl)-5-chloro-N4-(2-(isopropylsulfonyl)phenyl)pyrimidin-2,4-diamine] | 1 to 10
COc1cc(N2CCNCC2)c(C)cc1Nc1ncc(Cl)c(Nc2ccccc2S(=O)(=O)C(C)C)n1 [Compound I-17, 5-chloro-N4-(2-(isopropylsulfonyl)phenyl)-N2-(2-D3-methoxy-4-(piperazin-1-yl)-5-methyl-phenyl)pyrimidin-2,4-diamine] | 1 to 10

Now from value to compound:

IC50 [nM] | SMILES
1 to 10 | COc1cc(C2CCNCC2)c(C)cc1Nc1ncc(C#N)c(Nc2ccccc2S(=O)(=O)C(C)C)n1 [Compound I-6]
1 to 10 | COc1cc(C2CCNCC2)c(C)cc1Nc1ncc(Br)c(Nc2ccccc2S(=O)(=O)C(C)C)n1 [Compound I-4, 5-bromo-N4-(2-(isopropylsulfonyl)phenyl)-N2-(2-D3-methoxy-5-methyl-4-(piperidin-4-yl)phenyl)pyrimidin-2,4-diamine]
1 to 10 | COc1cc(C2CCNCC2)c(C)cc1Nc1ncc(C)c(Nc2ccccc2S(=O)(=O)C(C)C)n1 [Compound I-8, N4-(2-(isopropylsulfonyl)phenyl)-N2-(2-D3-methoxy-5-methyl-4-(piperidin-4-yl)phenyl)-5-methylpyrimidin-2,4-diamine]
1 to 10 | COc1cc(C2CCNCC2)c(C)cc1Nc1ncc(F)c(Nc2ccccc2S(=O)(=O)C(C)C)n1 [Compound I-2, 5-fluoro-N4-(2-(isopropylsulfonyl)phenyl)-N2-(2-D3-methoxy-5-methyl-4-(piperidin-4-yl)phenyl)pyrimidin-2,4-diamine]
1 to 10 | COc1cc(C2CCNCC2)ccc1Nc1ncc(Cl)c(Nc2ccccc2S(=O)(=O)C(C)C)n1 [Compound I-15, 5-chloro-N2-(2-D3-methoxy-4-(piperidin-4-yl)phenyl)-N4-(2-(isopropylsulfonyl)phenyl)pyrimidin-2,4-diamine]
1 to 10 | COc1cc(C2CCNCC2)c(C(F)(F)F)cc1Nc1ncc(Cl)c(Nc2ccccc2S(=O)(=O)C(C)C)n1 [Compound I-22, 5-chloro-N4-(2-(isopropylsulfonyl)phenyl)-N2-(2-D3-methoxy-4-(piperidin-4-yl)-5-(trifluoromethyl)phenyl)pyrimidin-2,4-diamine]
10 to 100 | CCc1cc(Nc2ncc(Cl)c(Nc3ccccc3S(=O)(=O)C(C)C)n2)c(OC)cc1C1CCNCC1 [Compound 44, reference compound]
1 to 10 | COc1cc(C2CCNCC2)c(F)cc1Nc1ncc(Cl)c(Nc2ccccc2S(=O)(=O)C(C)C)n1 [Compound I-21, 5-chloro-N2-(5-fluoro-2-D3-methoxy-4-(piperidin-4-yl)phenyl)-N4-(2-(isopropylsulfonyl)phenyl)pyrimidin-2,4-diamine]
1 to 10 | C#Cc1cnc(Nc2cc(C)c(C3CCNCC3)cc2OC)nc1Nc1ccccc1S(=O)(=O)C(C)C [Compound I-13, 5-ethynyl-N4-(2-(isopropylsulfonyl)phenyl)-N2-(2-D3-methoxy-5-methyl-4-(piperidin-4-yl)phenyl)pyrimidin-2,4-diamine]
1 to 10 | COc1cc(C2CCNCC2)c(Cl)cc1Nc1ncc(Cl)c(Nc2ccccc2S(=O)(=O)C(C)C)n1 [Compound I-18, 5-chloro-N2-(5-chloro-2-D3-methoxy-4-(piperidin-4-yl)phenyl)-N4-(2-(isopropylsulfonyl)phenyl)pyrimidin-2,4-diamine]
10 to 100 | COc1cc(C2CCNCC2)c(C)cc1Nc1ncc(Cl)c(Nc2ccccc2S(=O)(=O)C(C)C)n1 [Compound 45, reference compound]
1 to 10 | C=Cc1cnc(Nc2cc(C)c(C3CCNCC3)cc2OC)nc1Nc1ccccc1S(=O)(=O)C(C)C [Compound I-12, N4-(2-(isopropylsulfonyl)phenyl)-N2-(2-D3-methoxy-5-methyl-4-(piperidin-4-yl)phenyl)-5-ethenylpyrimidin-2,4-diamine]
1 to 10 | COc1cc(C2CCNCC2)c(C)cc1Nc1ncc(OC)c(Nc2ccccc2S(=O)(=O)C(C)C)n1 [Compound I-7, N4-(2-(isopropylsulfonyl)phenyl)-5-methoxy-N2-(2-D3-methoxy-5-methyl-4-(piperidin-4-yl)phenyl)pyrimidin-2,4-diamine]
1 to 10 | COc1cc(C2CCNCC2)c(C)cc1Nc1ncc([N+](=O)[O-])c(Nc2ccccc2S(=O)(=O)C(C)C)n1 [Compound I-10, N4-(2-(isopropylsulfonyl)phenyl)-N2-(2-D3-methoxy-5-methyl-4-(piperidin-4-yl)phenyl)-5-nitropyrimidin-2,4-diamine]
